# Like-named read-outs stand apart in the source and are kept apart here.
# Tests used:
# MES-SA/Dx5 cell line = experiment: Cytotoxicity, PrestoBlue cell viability assay, MES-SA/Dx5; assay type: cell-based; conditions: Homo sapiens
# Procedure: (§1) The human uterine sarcoma cell line MES-SA and its doxorubicin resistant counterpart MES-SA/Dx5 were obtained from ATCC (MES-SA: No. CRL-1976™, MES-SA-Dx5: No. CRL-1977™). MES-SA/Dx5 cells express high levels of P-gp, and therefore are multidrug resistant (MDR). Cells were cultured in DMEM supplemented with 10% FBS, 5 mmol/L glutamine and 50 unit/mL penicillin and streptomycin (Life Technologies).
# (§2) Cell survival was measured by the PrestoBlue® Cell Viability Reagent (Life Technologies, USA). Cells were seeded in 100 μl medium at a density of 5000 cells/well in 96-well plates; the serially diluted drug was added the following day. Cells were then incubated for 72 hours at 37° C. in 5% CO2; the drug containing medium was removed, and the PrestoBlue® reagent was added according to the manufacturer's instructions. Fluorescence of the cells was measured by a Perkin Elmer EnSpire multimode plate reader or Perkin Elmer Victor X3 microplate reader. Data were background corrected and normalized to untreated cells. Curves were fitted with the help of Prism software using the sigmoidal dose-response model. Curve fit statistics were used to determine IC50 values. Differences between the IC50 values of the respective cell lines were analyzed by two-sided […] unpaired Student's t test and results were considered statistically significant at a P value of <0.05 (*) or 0.01 (**).
# MES-SA cell line = experiment: Cytotoxicity, PrestoBlue cell viability assay, parental MES-SA; assay type: cell-based; conditions: Homo sapiens; parental MES-SA cell line (Table 2a)
# Procedure: as §1, §2
# [1] = test system: MES-SA and multidrug-resistant MES-SA/Dx5 cell line; experiment: Selective toxicity (ratio of IC50 in MES-SA to IC50 in MES-SA/Dx5) and activity index; assay type: cell-based, human
# Source text: Compounds having P-gp potentiated MDR-selective activity can be characterized by their inhibitory concentration (IC) with regard to a specific cancer cell line. Usually the IC value is given at a certain percentage ratio of non-inhibited molecules or surviving cells. For example an IC20 value of a compound on a cell line means that at this inhibitory concentration of the compound 80% of the cells are killed whereas 20% of the cells are still viable. A further characteristic of MDR-selective drugs is the selectivity ratio (SR), which is the ratio of the IC value measured in a non-multidrug resistant cell line to (i.e. divided by) the IC value measured in the corresponding transformed, multidrug-resistant cell line. The inverse value, the resistance ratio (RR) is calculated as the ratio of a compound's IC value against a multidrug resistant cell line divided by the parallel IC value of the same compound against a control non-multidrug resistant cell line. The Activity Index (AI) is calculated here as the ratio of the compound's selectivity ratio (SR) and the compound's IC50 value against the resistant cell. The AI reflects the level of simultaneous toxicity and selectivity towards multidrug-resistant cancer cells.
# as §1, §2
# Selectivity towards multidrug-resistant cells is expressed as the ratio of the IC50 value measured in the parental MES-SA and multidrug-resistant MES-SA/Dx5 cell line (Selectivity Ratio, SR).
# A novel characteristic of the compounds presented in this invention is that they exert their selective cytotoxicity at low IC50 values. Simultaneous toxicity and selectivity towards multidrug-resistant cancer cells is reflected by the Activity Index (AI) of the compounds, which is the ratio of the selectivity ratio (SR) and the IC50 value on the resistant cell line.
# [2] = test system: A431 and A431-B1 cell lines; experiment: Selective toxicity in A431 and A431-B1 cell lines; assay type: cell-based, human; conditions: A431 versus P-gp-transfected A431-B1
# Procedure: as §2
# (§3) Data on selective toxicity (expressed as Selectivity Ratio, SR) in two MDR models engineered by retroviral transfection of P-glycoprotein (A431/A431-B1 and MDCK II/MDCK II B1 cell lines) are presented in Table 3 and Table 4.
# (§4) A431 is a human epidermoid carcinoma cell line. Its derivative, the A431-B1 cell line expresses P-gp due to retroviral transfection of the mdr1 gene Türk, D. et al (Türk, D. et al., 2009). MDCK II is a canine kidney cell line. MDCK II B1 was created by inserting the mdr1 gene with transposons [Pape V F S et al. 2015] Both cell express P-gp stably, and show a stable MDR phenotype. Culture conditions were identical as in the case of MES-SA cells.
# [3] = test system: MDCK II and MDCK II B1 cell lines; experiment: Selective toxicity towards MDCK II and MDCK II B1 cell lines; assay type: cell-based, canine; conditions: MDCK II versus MDCK II B1
# Procedure: as §2, §3, §4
# [4] = test system: MES-SA and MES-SA/Dx5 cells; experiment: Selective toxicity in the presence of the P-gp inhibitor tariquidar; assay type: cell-based, human; conditions: for SR (TQ): selectivity ratio in the presence of tariquidar (1 μM); for Selective toxicity in the presence of P-gp inhibitors: tariquidar
# Procedure: In the presence of tariquidar (an inhibitor of P-gp function), the toxicity of the compounds selectively diminishes in multidrug-resistant MES-SA/Dx5 cells, while the toxicity is unchanged against parental MESSA cells, which is reflected by a decrease in the selectivity ratio (SR (TQ)).
# To investigate the contribution of P-glycoprotein to the cytotoxic effect of a compound, cell survival was measured in the presence of the P-glycoprotein inhibitor tariquidar (1 μM). Tariquidar (CAS 206873-63-4) can be obtained e.g. from Selleck, Houston, USA.
# [5] = test system: P-gp-expressing MES-SA/Dx5 cells; experiment: P-gp switch assay (Calcein AM); assay type: cell-based, human; conditions: for Fraction of P-gp-negative cells (P3) in the population / Fraction of P-gp-positive cells (P4) in the population: MES-SA/Dx5, single dose at IC20 (killing 80% of the cells), surviving population at 80% confluence, Calcein AM; for Loss of P-gp expression in MES-SA/Dx5 cells: single treatment (FIG. 1, Table 6)
# Procedure: One million P-gp-expressing MES-SA/Dx5 cells were plated in a T25 cell culture flask. After 24 hours the compound of interest was added directly to the cells at a concentration corresponding to the IC20 value (killing 80% of the cells). After 5 days the culture media was removed, the cells were washed with PBS and the culture medium was exchanged. Cells were monitored daily and the recovery was recorded. The medium was changed every 5 days until the confluence of the cells reached 80%. At 80% confluence the cells were removed by gentle trypsinization, counted by an automated cell counter and stained with Calcein AM, a cellular dye able to detect the function of P-gp (Homolya 1993). P-gp-positivity was evaluated based on the ability of P-gp-expressing cells to extrude Calcein AM.
# MES-SA/Dx5 cells = experiment: Sensitivity of MES-SA/Dx5 cells to doxorubicin after a single treatment; assay type: cell-based, human; conditions: after treatment with a single dose (FIG. 3)
# Source text: The above treatment with compounds of the general Formula I results in a new, stable phenotype, with the complete resensitization of cells to conventional chemotherapy consisting of P-glycoprotein substrates such as doxorubicin (FIG. 3).
# Curves show the sensitivity of MES-SA/Dx5 cells (P-gp overexpressing cell line established from MES-SA) to doxorubicin before and after treatment with a single dose of a state of the art compound (NSC693872) and two compounds relating to this invention (Example compounds No. 9 and No. 17). The sensitivity of MES-SA cells is shown as a reference (P-gp-negative parental cell line). […] (Values indicate the IC50 values (μM) derived from the cytotoxicity curves).
# [6] = test system: ABCB1-overexpressing and parental HEK293 cells; conditions: cited from earlier work
# [7] = WO2010138686 and Türk et al. 2009; cited from earlier work
# [8] = multidrug-resistant MES-SA/Dx5 cell line (Table 2a), read-out: IC50 (nM) in MES-SA/Dx5 cell line
# [9] = MES-SA / MES-SA/Dx5, without tariquidar (Table 5)
# [10] = MES-SA/Dx5 (Table 2b), read-out: IC50 (μM) Dx5
# [11] = Mes-sa/Dx5 cell line, PrestoBlue assay, 72 hours (Table 1), read-out: IC50
melting point [°C],SMILES,IC50 (MES-SA/Dx5 cell line; [8]) [nM],IC50 (MES-SA cell line) [nM],"SR [1, 9]",Selectivity Ratio (SR) (A431/A431-B1) [2],Selectivity Ratio (SR) (MDCK II/MDCK II B1) [3],SR (TQ) [4],Fraction of P-gp-negative cells (P3) in the population [5] [%],Fraction of P-gp-positive cells (P4) in the population [5] [%],Resensitization of MES-SA/Dx5 cells to doxorubicin (MES-SA/Dx5 cells),IC50 (MES-SA/Dx5 cell line; [10]) [nM],IC50 (MES-SA/Dx5 cell line; [11]) [nM],SR ([1]; MES-SA / MES-SA/Dx5 (Table 2b)),Selective toxicity in the presence of P-gp inhibitors [4],Loss of P-gp expression in MES-SA/Dx5 cells [5],selectivity [6],selectivity [7]
69 to 71,"C/C(=N\Nc1ccc2ccc(CN3CCCCC3)c(O)c2n1)c1ccccn1 [Example 3, (E/Z)-7-(Piperidin-1ylmethyl)-2-(2-(1-(pyridin-2-yl)ethylidene)hydrazinyl)quinolin-8-ol]",727,11300,16.2,14.4,9.5,1.5,88.6,11.40,,,,,,,,
,"Oc1c(C2NCCc3sccc32)cc(Cl)c2cccnc12 (stereo not drawn) [Example 17, 5-Chloro-7-(4,5,6,7-tetrahydrothieno[3,2-c]pyridin-4-yl)quinolin-8-ol]",,,,12.6,,,,,sufficient to resensitize MES-SA/Dx5 cells to doxorubicin,,,,,,,
133 to 136,"COc1ccc(CNCc2cc(Br)c3cccnc3c2O)cc1OC [Example 25, 5-Bromo-7-(((3,4-dimethoxybenzyl)amino)methyl)quinolin-8-ol]",131,2910,22.3,,9.4,1.6,92.30,7.70,,130,131,22.3,,,,
136 to 139,"COc1ccc(CNCc2cc(Cl)c3cccnc3c2O)c(OC)c1 [Example 26, 5-Chloro-7-(((2,4-dimethoxybenzyl)amino)methyl)quinolin-8-ol]",130,2260,17.6,11.2,8.0,1.7,,,,130,133,17.6,,,,
191 to 193,"COc1ccc(CNCc2cc([N+](=O)[O-])c3cccnc3c2O)cc1 [Example 27, 7-(((4-Methoxybenzyl)amino)methyl)-5-nitroquinolin-8-ol]",310,6090,19.9,12.6,8.0,1.6,,,,310,,19.9,,,,
204 to 206,"COc1ccc(CNCc2cc([N+](=O)[O-])c3cccnc3c2O)cc1OC [Example 30, 7-(((3,4-Dimethoxybenzyl)amino)methyl)-5-nitroquinolin-8-ol]",1220,23800,19.3,11.5,16.1,1.3,,,,,,,,,,
,"Cl.Oc1c(CN2CCCC2)ccc2cccnc12 [NSC693871, 7-(pyrrolidin-1-ylmethyl)quinolin-8-ol hydrochloride, reference compound]",1470,6250,4.2,3.8,4.4,1.4,9.1,90.9,,1470,1470,4.2,retain a partial selective toxicity,insignificant loss,~10,about 8.48
,"CCN(CC)Cc1ccc2cccnc2c1O [NSC693872, 7-(N,N-diethylaminomethyl)quinolin-8-ol, reference compound]",1580,7810,4.9,1.9,3.1,2.6,7.8,92.2,not sufficient to influence the resistance of the cells to doxorubicin,1580,1580,4.9,retain a partial selective toxicity,insignificant loss,,~3.90

# Reference: patent publication US10744127B2, “MDR-reversing 8-hydroxy-quinoline derivatives” (MAGYAR TUDOMÁNYOS AKADÉMIA TERMÉSZETTUDOMÁNYI KUTATÓKÖZPONT, priority 2016, dated 2020)
